# From ChEMBL document CHEMBL1201862, “PubChem BioAssay data set” (2004)
# Calls of active or inactive are those of the source.
# Tests used:
# [1] = HIV-1 AD8 envelope cell-cell fusion blockers – cherry-pick, dose response (AID 652062); assay type: functional, cell-based;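 note: luciferase signal from cell-cell fusion driven by HIV-1 clade B AD8 Env; potency is for inhibitors of fusion seen as a drop in luminescence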
# [2] = blockers of HIV-1 envelope-mediated cell-cell fusion – cherry-pick, dose response (AID 652057); assay type: functional, cell-based
# Fatty acid synthase [3] = molecular target: T1, Fatty acid synthase (Homo sapiens, UniProt P49327); assay: inhibition of human FAS-TE enzyme activity – biochemical, kinetic fluorescence intensity, dose response (AID 624326); assay type: functional;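 note: rate of fluorescence rise from hydrolysis of a fluorogenic O-methyl fluorescein ester substrate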
# T1 sequence (P49327 whole entry): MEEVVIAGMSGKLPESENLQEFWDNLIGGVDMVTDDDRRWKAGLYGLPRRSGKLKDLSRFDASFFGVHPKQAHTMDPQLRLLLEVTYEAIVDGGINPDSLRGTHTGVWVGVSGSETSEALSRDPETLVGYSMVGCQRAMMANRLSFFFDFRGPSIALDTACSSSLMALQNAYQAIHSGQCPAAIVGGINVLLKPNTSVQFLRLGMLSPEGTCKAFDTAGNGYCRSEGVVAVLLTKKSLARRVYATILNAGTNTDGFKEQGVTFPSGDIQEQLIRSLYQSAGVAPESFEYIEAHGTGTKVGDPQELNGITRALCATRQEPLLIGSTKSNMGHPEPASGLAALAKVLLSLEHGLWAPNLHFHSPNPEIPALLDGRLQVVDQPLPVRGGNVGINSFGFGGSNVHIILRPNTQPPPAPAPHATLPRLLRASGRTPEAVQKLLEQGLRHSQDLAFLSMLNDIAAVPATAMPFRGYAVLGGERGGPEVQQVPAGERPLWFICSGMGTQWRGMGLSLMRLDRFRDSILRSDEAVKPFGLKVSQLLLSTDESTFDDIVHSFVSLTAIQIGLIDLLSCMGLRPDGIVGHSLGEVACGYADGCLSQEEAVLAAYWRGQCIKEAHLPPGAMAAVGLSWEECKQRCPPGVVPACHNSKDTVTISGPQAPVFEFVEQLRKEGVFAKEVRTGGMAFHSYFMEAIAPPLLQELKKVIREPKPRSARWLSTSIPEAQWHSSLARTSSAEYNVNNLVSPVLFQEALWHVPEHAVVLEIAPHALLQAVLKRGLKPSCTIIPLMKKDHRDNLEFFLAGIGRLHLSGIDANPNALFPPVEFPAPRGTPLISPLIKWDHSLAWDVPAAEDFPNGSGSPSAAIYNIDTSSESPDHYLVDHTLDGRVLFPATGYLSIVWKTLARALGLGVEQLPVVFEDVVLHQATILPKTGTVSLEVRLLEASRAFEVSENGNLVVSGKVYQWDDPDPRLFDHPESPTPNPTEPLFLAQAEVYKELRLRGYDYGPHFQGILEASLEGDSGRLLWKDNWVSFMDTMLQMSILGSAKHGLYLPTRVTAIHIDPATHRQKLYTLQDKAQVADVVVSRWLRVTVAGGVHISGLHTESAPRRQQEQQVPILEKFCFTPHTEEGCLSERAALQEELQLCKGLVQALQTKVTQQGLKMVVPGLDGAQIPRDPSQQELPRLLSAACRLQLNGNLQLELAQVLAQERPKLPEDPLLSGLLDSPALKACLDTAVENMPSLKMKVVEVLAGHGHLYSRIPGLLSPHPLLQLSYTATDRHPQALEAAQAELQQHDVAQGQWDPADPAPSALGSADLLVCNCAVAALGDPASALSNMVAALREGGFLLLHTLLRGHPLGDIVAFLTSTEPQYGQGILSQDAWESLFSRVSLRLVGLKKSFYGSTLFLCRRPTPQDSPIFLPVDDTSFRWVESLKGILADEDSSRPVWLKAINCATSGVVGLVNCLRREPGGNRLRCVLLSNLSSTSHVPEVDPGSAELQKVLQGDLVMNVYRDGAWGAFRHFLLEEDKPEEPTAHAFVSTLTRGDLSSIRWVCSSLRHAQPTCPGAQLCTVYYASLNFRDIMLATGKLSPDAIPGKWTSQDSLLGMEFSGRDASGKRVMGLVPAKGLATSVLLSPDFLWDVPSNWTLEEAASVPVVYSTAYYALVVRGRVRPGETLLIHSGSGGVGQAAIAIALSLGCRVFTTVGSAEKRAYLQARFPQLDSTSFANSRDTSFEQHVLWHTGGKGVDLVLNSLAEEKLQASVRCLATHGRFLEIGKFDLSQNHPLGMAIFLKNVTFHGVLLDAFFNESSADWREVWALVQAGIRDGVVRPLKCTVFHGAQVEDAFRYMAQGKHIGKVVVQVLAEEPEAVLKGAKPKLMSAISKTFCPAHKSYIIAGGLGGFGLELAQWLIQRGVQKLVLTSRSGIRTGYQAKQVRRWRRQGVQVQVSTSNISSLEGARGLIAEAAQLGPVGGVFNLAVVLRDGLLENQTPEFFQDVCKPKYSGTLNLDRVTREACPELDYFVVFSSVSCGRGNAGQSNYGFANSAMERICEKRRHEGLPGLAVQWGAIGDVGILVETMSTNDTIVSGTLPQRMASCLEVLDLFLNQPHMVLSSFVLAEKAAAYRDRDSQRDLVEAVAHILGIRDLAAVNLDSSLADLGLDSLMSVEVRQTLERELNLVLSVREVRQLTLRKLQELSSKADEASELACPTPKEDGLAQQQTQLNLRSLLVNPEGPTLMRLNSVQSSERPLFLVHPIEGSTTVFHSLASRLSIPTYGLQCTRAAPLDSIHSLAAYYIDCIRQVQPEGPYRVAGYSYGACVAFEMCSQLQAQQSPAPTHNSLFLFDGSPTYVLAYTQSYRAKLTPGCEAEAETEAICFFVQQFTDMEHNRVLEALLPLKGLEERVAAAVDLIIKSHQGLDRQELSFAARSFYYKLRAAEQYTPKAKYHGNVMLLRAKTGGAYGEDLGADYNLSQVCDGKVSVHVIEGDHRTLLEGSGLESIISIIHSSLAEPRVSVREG
# [4] = molecular target: T2, High affinity choline transporter 1 (Homo sapiens, UniProt Q9GZV3); assay: human choline transporter blockers, potency – cell-based, 5-point CRC, membrane potential dye, dose response (AID 504840); assay type: functional
# T2 sequence (Q9GZV3 whole entry): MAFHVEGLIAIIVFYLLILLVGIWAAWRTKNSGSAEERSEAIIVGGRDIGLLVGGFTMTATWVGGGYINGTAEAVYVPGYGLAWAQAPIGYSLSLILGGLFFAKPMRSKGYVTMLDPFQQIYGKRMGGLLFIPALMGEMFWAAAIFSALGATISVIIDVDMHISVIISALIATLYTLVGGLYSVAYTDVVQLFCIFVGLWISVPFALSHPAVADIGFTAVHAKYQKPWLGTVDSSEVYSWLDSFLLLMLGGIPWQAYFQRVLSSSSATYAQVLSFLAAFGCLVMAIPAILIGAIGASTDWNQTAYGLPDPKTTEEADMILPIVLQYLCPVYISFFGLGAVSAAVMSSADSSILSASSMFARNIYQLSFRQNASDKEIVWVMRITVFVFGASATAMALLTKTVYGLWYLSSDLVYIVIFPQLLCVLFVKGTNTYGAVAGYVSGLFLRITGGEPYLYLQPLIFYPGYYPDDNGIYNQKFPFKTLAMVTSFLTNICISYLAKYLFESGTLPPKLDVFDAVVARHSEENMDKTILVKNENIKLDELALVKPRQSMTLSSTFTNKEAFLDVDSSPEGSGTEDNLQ
# Fatty acid synthase [5] = molecular target: T1, Fatty acid synthase; assay: inhibition of human FAS-TE enzyme activity – biochemical, endpoint fluorescence intensity, uHTS hits, dose response (AID 624327); assay type: functional;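 note: fluorescence from hydrolysis of an O-methyl fluorescein acyl ester substrate by the enzyme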
# Cytochrome P450 3A4 = Cytochrome P450 3A4 (Homo sapiens, UniProt P08684); settings: Potency;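 note: confirmatory qHTS run detecting inhibitors and substrates of CYP3A4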
# Chain of Cytochrome P450 3A4 (P08684 whole entry): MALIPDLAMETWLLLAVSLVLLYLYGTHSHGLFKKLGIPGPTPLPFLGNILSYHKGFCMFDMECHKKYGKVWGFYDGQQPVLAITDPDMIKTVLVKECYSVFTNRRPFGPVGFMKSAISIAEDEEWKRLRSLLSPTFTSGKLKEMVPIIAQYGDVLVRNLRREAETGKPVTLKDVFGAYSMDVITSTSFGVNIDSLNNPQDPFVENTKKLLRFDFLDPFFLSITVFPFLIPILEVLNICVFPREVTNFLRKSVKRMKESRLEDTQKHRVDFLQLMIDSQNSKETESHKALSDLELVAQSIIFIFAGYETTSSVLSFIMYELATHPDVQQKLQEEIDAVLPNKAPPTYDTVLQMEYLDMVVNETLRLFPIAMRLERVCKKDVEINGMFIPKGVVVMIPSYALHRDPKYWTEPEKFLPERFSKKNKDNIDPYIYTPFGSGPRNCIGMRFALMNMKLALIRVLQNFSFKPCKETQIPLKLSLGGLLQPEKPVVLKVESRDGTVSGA
# [6] = P. falciparum Dd2 growth inhibitors, dose response, SYBR Green, cherry-picked samples (AID 1159567); assay type: functional, cell-based
# [7] = molecular target: Luciferin 4-monooxygenase (Photinus pyralis, UniProt P08659); assay: inhibition of purified Photinus pyralis luciferase – biochemical, luminescence, dose response (AID 1891)
# Chain of Luciferin 4-monooxygenase (P08659 whole entry): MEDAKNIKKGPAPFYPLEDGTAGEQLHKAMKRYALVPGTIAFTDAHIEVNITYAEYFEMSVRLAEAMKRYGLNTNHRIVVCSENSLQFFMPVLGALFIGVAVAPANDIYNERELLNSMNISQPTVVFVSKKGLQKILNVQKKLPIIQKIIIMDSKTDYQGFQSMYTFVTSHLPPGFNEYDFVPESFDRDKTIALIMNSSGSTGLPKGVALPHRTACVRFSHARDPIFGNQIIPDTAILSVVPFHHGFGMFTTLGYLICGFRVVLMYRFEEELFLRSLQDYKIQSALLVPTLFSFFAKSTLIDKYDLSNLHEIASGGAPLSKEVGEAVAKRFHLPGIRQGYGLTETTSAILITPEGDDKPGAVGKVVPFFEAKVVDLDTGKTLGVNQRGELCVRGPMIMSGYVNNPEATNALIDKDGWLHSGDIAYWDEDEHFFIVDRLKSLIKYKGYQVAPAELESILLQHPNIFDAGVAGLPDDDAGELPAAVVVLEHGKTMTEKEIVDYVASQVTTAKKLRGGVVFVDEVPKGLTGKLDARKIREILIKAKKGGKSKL
# [8] = NIH3T3 cell viability loss – ATP luminescence, mouse fibroblasts, counter-screen, dose response (AID 2010); assay type: functional, cell-based;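 note: cells exposed to compound for about 90 hours before reading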
# Protein skinhead-1 = molecular target: T3, Protein skinhead-1 (Caenorhabditis elegans, UniProt P34707); assay type: functional
# T3 sequence (P34707 whole entry): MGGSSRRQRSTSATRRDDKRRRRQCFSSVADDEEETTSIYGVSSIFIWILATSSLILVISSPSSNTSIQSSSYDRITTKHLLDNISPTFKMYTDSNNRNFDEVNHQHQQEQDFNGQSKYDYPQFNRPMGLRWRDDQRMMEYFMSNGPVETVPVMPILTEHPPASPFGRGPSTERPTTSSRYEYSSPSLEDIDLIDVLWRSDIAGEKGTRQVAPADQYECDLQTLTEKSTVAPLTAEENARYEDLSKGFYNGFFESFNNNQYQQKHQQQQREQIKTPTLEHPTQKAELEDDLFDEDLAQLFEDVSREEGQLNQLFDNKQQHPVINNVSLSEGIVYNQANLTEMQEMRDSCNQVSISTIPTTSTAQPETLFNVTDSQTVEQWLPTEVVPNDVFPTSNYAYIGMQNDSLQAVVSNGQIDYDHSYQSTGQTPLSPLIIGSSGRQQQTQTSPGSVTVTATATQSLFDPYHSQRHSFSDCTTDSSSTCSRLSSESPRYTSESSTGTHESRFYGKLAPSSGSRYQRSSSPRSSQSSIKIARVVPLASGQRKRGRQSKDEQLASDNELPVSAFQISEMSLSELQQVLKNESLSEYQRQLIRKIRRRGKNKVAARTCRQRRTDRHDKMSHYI
# [9] = Trypanosoma cruzi growth suppression in host cells – NIH3T3 host cells, beta-gal luminescence, confirmation (AID 2044); assay type: functional, cell-based;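 note: intracellular parasites grown in NIH/3T3 mouse fibroblasts as host cells; luminescent beta-galactosidase reporter signal from transgenic T. cruzi replicating inside host cells; inhibitors lower the luminescence signal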
# [10] = blockers of HIV-1 ZM109 envelope-driven cell-cell fusion – HeLa effector, CEM target cells, luciferase, cherry-pick, dose response (AID 652058); assay type: functional, cell-based;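 note: luciferase signal from HIV-1 Env mediated cell-cell fusion of effector and target cells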
# Paired box protein Pax-8 = Paired box protein Pax-8 (Homo sapiens, UniProt Q06710); assay: PAX8 transcriptional activity inhibition in RMG-I – RMG-I cells, luciferase, cherry-pick, dose response (AID 687027); assay type: functional, cell-based;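 note: luciferase reporter driven by Pax8 target thyroperoxidase promoter measured by SteadyGlo luminescence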
# Chain of Paired box protein Pax-8 (Q06710 whole entry): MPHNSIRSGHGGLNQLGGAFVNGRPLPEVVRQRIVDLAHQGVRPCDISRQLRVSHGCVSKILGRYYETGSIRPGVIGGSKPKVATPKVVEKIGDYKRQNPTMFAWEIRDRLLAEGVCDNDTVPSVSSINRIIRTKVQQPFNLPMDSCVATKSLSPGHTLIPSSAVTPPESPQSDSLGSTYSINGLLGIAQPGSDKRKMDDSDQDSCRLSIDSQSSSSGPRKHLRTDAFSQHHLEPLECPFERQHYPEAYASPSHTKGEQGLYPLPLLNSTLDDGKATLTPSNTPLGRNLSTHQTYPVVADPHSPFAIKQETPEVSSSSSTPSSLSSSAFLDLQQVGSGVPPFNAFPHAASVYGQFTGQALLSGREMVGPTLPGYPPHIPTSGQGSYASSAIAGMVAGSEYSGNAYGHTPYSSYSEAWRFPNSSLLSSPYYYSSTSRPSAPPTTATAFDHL
# [11] = Luminescence Cell-Based Dose Confirmation HTS to Identify Inhibitors of Platelet Dense Granule Release. [Related pubchem assays: 1663 (Primary HTS), 1678 (Summary of Project)]; assay type: functional
# [12] = molecular target: T4, Calpain-2 catalytic subunit (Sus scrofa, UniProt P43367); assay: m-calpain protease blockers, concentration series – biochemical, fluorogenic peptide substrate, dose response (AID 1420); assay type: functional
# T4 sequence (P43367 whole entry): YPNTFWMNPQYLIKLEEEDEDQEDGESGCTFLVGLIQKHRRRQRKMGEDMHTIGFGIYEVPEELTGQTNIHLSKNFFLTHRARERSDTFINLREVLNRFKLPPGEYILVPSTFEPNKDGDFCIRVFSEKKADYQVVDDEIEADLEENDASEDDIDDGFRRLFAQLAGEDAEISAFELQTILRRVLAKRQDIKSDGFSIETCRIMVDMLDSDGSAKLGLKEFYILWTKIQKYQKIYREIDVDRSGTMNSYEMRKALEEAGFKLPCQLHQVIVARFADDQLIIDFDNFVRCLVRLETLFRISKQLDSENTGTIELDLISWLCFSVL
smiles,measurement,setting,value
CC(C)(C)OC(=O)N1CCc2onc(-c3ccc(Br)cc3)c2C1=O,AC50,[1],59.9 µM (active)
same,AC50,[2],64.9 µM (active)
CCCCCc1nc2sc3c(c2c(=O)n1NC(=O)c1ccc([N+](=O)[O-])cc1)CC(C)(C)OC3,IC50,Fatty acid synthase [3],5.75 µM (active)
same,IC50,[4],12.6 µM (active)
same,IC50,Fatty acid synthase [5],5.09 µM (active)
Cc1ccc(S(=O)(=O)Nc2cccc(-c3ccc(N4CCCCCC4)nn3)c2)c(C)c1,IC50,Fatty acid synthase [3],6.9 µM (active)
same,IC50,Fatty acid synthase [5],5.11 µM (active)
COC(=O)CCC(C)C1CCC2C3C(O)C[C@@H]4CC(O)CC[C@@]4(C)C3CC(O)[C@]12C (some centres undefined),AC50,Cytochrome P450 3A4,20 µM (inconclusive)
C[C@H](CO)N1C[C@H](C)[C@@H](CN(C)Cc2ccc(Oc3ccccc3)cc2)Oc2ccc(NS(=O)(=O)c3cn(C)cn3)cc2CC1=O,AC50,[6],9.82 µM (active)
CCCn1c(C)nc2c(NCc3ccccc3)nc(C)nc21,AC50,Cytochrome P450 3A4,15.8 µM (inconclusive)
COc1ccc(NC(=O)N(C)C[C@H]2OCc3ccccc3-c3c(n(C)c4ccccc34)C(=O)N([C@@H](C)CO)C[C@H]2C)c(OC)c1,AC50,[6],4.92 µM (active)
CC(=O)[C@@H]1[C@H]2[C@H](C(=O)[C@H]3OC[C@@H]2O3)[C@H]2C=Cc3ccccc3N21,AC50,Cytochrome P450 3A4,25.1 µM (inconclusive)
COC(=O)[C@@H]1C[C@@]2(O)[C@H](O)[C@H](O)[C@H](O)C[C@H]2N1Cc1cccnc1,AC50,Cytochrome P450 3A4,31.6 µM (inconclusive)
Cc1cccc(OCC(=O)Nc2nnc[nH]2)c1C,EC50,[7],> 112 µM (not active)
c1cc2c3c(c1)ccc1cccc(c13)C2,AC50,Cytochrome P450 3A4,25.1 µM (inconclusive)
O=C(Nc1c(C(=O)N2CCOCC2)cnn1-c1ccccc1)c1ccc([N+](=O)[O-])cc1,IC50,Fatty acid synthase [3],9.36 µM (active)
same,IC50,Fatty acid synthase [5],11.7 µM (active)
CC1=C(C(=O)c2ccccc2)C(c2cn(-c3ccccc3)nc2-c2ccc(Cl)cc2)NC(S)=N1 (centres undefined),EC50,[8],> 30 µM (not active)
same,IC50,Protein skinhead-1,> 100 µM (inactive)
same,EC50,[9],2.33 µM (active)
C[C@H](CO)N1C[C@H](C)[C@H](CN(C)S(=O)(=O)c2cccs2)Oc2ccc(NC(=O)Nc3cccc4ccccc34)cc2CC1=O,AC50,[1],< 0.26 µM (active)
same,AC50,[2],< 0.26 µM (active)
same,AC50,[10],< 0.26 µM (active)
COc1cccc(S(=O)(=O)N2CCC3(CC2)CN[C@@H](CO)c2[nH]c4cc(OC)ccc4c23)c1,AC50,[6],5.39 µM (active)
C[C@H](CO)N1C[C@H](C)[C@@H](CN(C)Cc2ccc(C(F)(F)F)cc2)Oc2ccc(NS(=O)(=O)c3ccc(F)cc3)cc2CC1=O,AC50,Paired box protein Pax-8,11.9 µM (active)
CCOC(=O)N1CCN(CC(=O)N2CCC(C(N)=O)CC2)CC1,EC50,[11],> 112 µM (not active)
same,EC50,[7],> 112 µM (not active)
COc1ccc(CN2C[C@H](C)[C@H](OC)CN(C)C(=O)c3cc(NC(=O)c4nc5ccccc5s4)ccc3OC[C@@H]2C)cc1,AC50,[6],5.29 µM (active)
CCC(C)NC(=O)CSc1nc2c(sc(=S)n2Cc2ccco2)c(=O)n1-c1ccccc1 (centres undefined),IC50,Fatty acid synthase [3],60.6 µM (inactive)
same,IC50,Fatty acid synthase [5],30 µM (inactive)
COC(=O)c1ccc(C23CC4(C2)[C@H](CN(CC2CCCCC2)[C@@H]4c2ccccc2)C3c2ccc(C(F)(F)F)cc2)cc1 (some centres undefined),AC50,Cytochrome P450 3A4,15.8 µM (inconclusive)
CCOC(=O)N1CCN(Cc2nc3c(c(=O)n(C)c(=O)n3C)n2Cc2cccc3ccccc23)CC1,EC50,[11],> 112 µM (not active)
same,EC50,[7],> 112 µM (not active)
Cc1nn(Cc2ccc(Cl)cc2Cl)c(C)c1NC(=O)c1nn(C)cc1Cl,IC50,[12],0.917 µM (not active)
C[C@@H]1CN([C@H](C)CO)S(=O)(=O)c2ccc(C#Cc3ccccc3)cc2O[C@H]1CN(C)S(=O)(=O)c1cn(C)cn1,AC50,[6],3.7 µM (active)
CCOC(=O)N1CCC(Nc2ccc(N3C(=O)C4CCCCC4C3=O)cc2[N+](=O)[O-])CC1 (centres undefined),IC50,[12],7.24 µM (active)
COc1ccc(C(=O)N/C(=C\c2cn(S(=O)(=O)N(C)C)c3ccccc23)C(=O)N2CCOCC2)cc1,IC50,Fatty acid synthase [3],4.26 µM (active)
same,IC50,Fatty acid synthase [5],1.83 µM (active)
CCOC(=O)[C@@H]1[C@H]2COc3ccc(Br)cc3[C@@H]2N2C(=O)N(c3cccc(Cl)c3)C(=O)[C@@]12C,IC50,Fatty acid synthase [3],11.8 µM (active)
same,IC50,Fatty acid synthase [5],22.9 µM (inactive)
Cc1cccc(OCC(=O)Nc2nc[nH]n2)c1C,EC50,[11],> 112 µM (not active)
Cc1nn(-c2ccc(Cl)c(Cl)c2Cl)c(=O)c2ccccc12,IC50,[12],22.8 µM (not active)
Cn1cc(C2=C(c3cn(CCCSC(=N)N)c4ccccc34)C(=O)NC2=O)c2ccccc21,AC50,Cytochrome P450 3A4,6.31 µM (inconclusive)
C[C@H](CO)N1C[C@H](C)[C@H](CN(C)C(=O)C2CC2)Oc2cc(C#Cc3ccccc3)ccc2S1(=O)=O,AC50,[6],4.27 µM (active)
CCc1cccc(C)c1NC(=O)COC(=O)c1cc([N+](=O)[O-])ccc1N1CCOCC1,IC50,Fatty acid synthase [3],10.7 µM (active)
same,IC50,Fatty acid synthase [5],10.5 µM (active)
COc1ccc2c(c1)OCc1c-2oc2cc(OC)ccc12 [DEHYDROVARIABILIN],AC50,Cytochrome P450 3A4,39.8 µM (inconclusive)
CC(=O)N1CC=CC1(CC(C)C)C(=O)NCc1ccccn1 (centres undefined),AC50,Cytochrome P450 3A4,20 µM (inconclusive)
CC(=O)NC1(c2ccccc2)CCN(C(=O)N2CCOCC2)CC1,IC50,[12],7.15 µM (not active)
COCCn1cc(C(=O)N2CCC(C)CC2)c2c3ccccc3n(C)c2c1=O,EC50,[11],> 112 µM (not active)
same,EC50,[7],> 112 µM (not active)
CCOC(=O)NCCc1ccc(OC)cc1,EC50,[11],> 112 µM (not active)
same,EC50,[7],> 112 µM (not active)
Cc1ccc([N+](=O)[O-])cc1NC(=O)C[n+]1ccccc1,IC50,[12],> 50 µM (not active)
O=C(/C=C/c1cccc([N+](=O)[O-])c1)N1CCN(S(=O)(=O)c2cccs2)CC1,IC50,Fatty acid synthase [3],2.31 µM (active)
same,IC50,Fatty acid synthase [5],2.69 µM (active)
COc1ccccc1C1C(C(=O)NCc2ccccc2)=C(C)Nc2ncnn21 (centres undefined),IC50,Protein skinhead-1,> 100 µM (inactive)
C[C@@H]1CCCCO[C@H](CN(C)S(=O)(=O)c2ccc(Cl)cc2)[C@@H](C)CN([C@@H](C)CO)C(=O)c2cc(NC(=O)Nc3ccc(C(F)(F)F)cc3)ccc2O1,AC50,Paired box protein Pax-8,2.87 µM (active)
COc1cc2c(cc1OC)C1Cc3ccc(OC)c(OC)c3CN1CC2 (centres undefined),AC50,Cytochrome P450 3A4,31.6 µM (inconclusive)
